Literature values, collected in patent US20200315976A1, “Encapsulation Methods and Compositions” (Prodo Laboratories, Inc., priority 2017, published 2020).

System: islets

CCOC(=O)c1ccccc1-c1c2cc(Br)c(=O)c(Br)c-2oc2c(Br)c([O-])c(Br)cc12.[K+] [Ethyl eosin, ethyl eosin]
effect on islets during conformal encapsulation: islet death
